# Experimental data published in PubChem BioAssay (NCI).
#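 A five-concentration, 48-hour dose response in 96-well plates underlies each endpoint, interpolated linearly between surrounding concentrations. TGI: concentration producing complete growth inhibition.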 Where a SMILES comes first, the peptide text is derived from it. The star is where a group is joined. Cbz = O=C(OCc1ccccc1)*
# Tests used:
# Test in all cases: inhibition of tumour cell growth, NCI panel, 48 h
# [1] = system: 786-0 renal
# [2] = system: A549 NSCLC
# [3] = system: ACHN renal
# [4] = system: BT-549 breast
# [5] = system: CAKI-1 renal
# [6] = system: CCRF-CEM leukemia
# [7] = system: COLO 205 colon
# [8] = system: DU-145 prostate
# [9] = system: EKVX NSCLC
# [10] = system: HCC-2998 colon
# [11] = system: HCT-116 colon
# [12] = system: HCT-15 colon
# [13] = system: HL-60(TB) leukemia
# [14] = system: HOP-62 NSCLC
# [15] = system: HOP-92 NSCLC
# [16] = system: HS 578T breast
# [17] = system: HT29 colon
# [18] = system: IGROV1 ovarian
# [19] = system: K-562 leukemia
# [20] = system: KM12 colon
# [21] = system: LOX IMVI melanoma
# [22] = system: M14 melanoma
# [23] = system: MALME-3M melanoma
# [24] = system: MCF7 breast
# [25] = system: MDA-MB-231 breast
# [26] = system: MDA-MB-435
# [27] = system: MDA-N
# [28] = system: MOLT-4 leukemia
# [29] = system: NCI-H226 lung
# [30] = system: NCI-H23 lung
# [31] = system: NCI-H460 lung
# [32] = system: NCI-H522 lung
# [33] = system: NCI/ADR-RES ovarian
# [34] = system: OVCAR-3 ovarian
# [35] = system: OVCAR-4 ovarian
# [36] = system: OVCAR-5 ovarian
# [37] = system: OVCAR-8 ovarian
# [38] = system: PC-3 prostate
# [39] = system: RPMI-8226 leukemia
# [40] = system: RXF 393 renal
# [41] = system: SF-268 CNS
# [42] = system: SF-295 CNS
# [43] = system: SF-539 CNS
# [44] = system: SK-MEL-2 melanoma
# [45] = system: SK-MEL-28 melanoma
# [46] = system: SK-MEL-5 melanoma
# [47] = system: SK-OV-3 ovarian
# [48] = system: SN12C renal
# [49] = system: SNB-19 CNS
# [50] = system: SNB-75 CNS
# [51] = system: SR leukemia
# [52] = system: SW-620 colon
# [53] = system: T-47D breast
# [54] = system: TK-10 renal
# [55] = system: U251 CNS
# [56] = system: UACC-257 melanoma
# [57] = system: UACC-62 melanoma
# [58] = system: UO-31 renal
# [59] = system: A498 renal
structure (smiles),measurement,setting,value
O=C(CNS(=O)(=O)Cc1ccccc1)NNc1ccccc1,TGI,[1],> 100 µM
same,TGI,[2],> 100 µM
same,TGI,[3],> 100 µM
same,TGI,[4],> 100 µM
same,TGI,[5],> 100 µM
same,TGI,[6],> 100 µM
same,TGI,[7],12.4 µM
same,TGI,[8],> 100 µM
same,TGI,[9],> 100 µM
same,TGI,[10],> 100 µM
same,TGI,[11],> 100 µM
same,TGI,[12],> 100 µM
same,TGI,[13],> 100 µM
same,TGI,[14],> 100 µM
same,TGI,[15],> 100 µM
same,TGI,[16],> 100 µM
same,TGI,[17],> 100 µM
same,TGI,[18],> 100 µM
same,TGI,[19],> 100 µM
same,TGI,[20],> 100 µM
same,TGI,[21],> 100 µM
same,TGI,[22],> 100 µM
same,TGI,[23],> 100 µM
same,TGI,[24],> 100 µM
same,TGI,[25],> 100 µM
same,TGI,[26],> 100 µM
same,TGI,[27],> 100 µM
same,TGI,[28],> 100 µM
same,TGI,[29],> 100 µM
same,TGI,[30],> 100 µM
same,TGI,[31],> 100 µM
same,TGI,[32],> 100 µM
same,TGI,[33],> 100 µM
same,TGI,[34],> 100 µM
same,TGI,[35],> 100 µM
same,TGI,[36],> 100 µM
same,TGI,[37],> 100 µM
same,TGI,[38],> 100 µM
same,TGI,[39],> 100 µM
same,TGI,[40],> 100 µM
same,TGI,[41],> 100 µM
same,TGI,[42],> 100 µM
same,TGI,[43],> 25.6 µM
same,TGI,[44],> 100 µM
same,TGI,[45],> 100 µM
same,TGI,[46],> 100 µM
same,TGI,[47],> 100 µM
same,TGI,[48],> 100 µM
same,TGI,[49],> 100 µM
same,TGI,[50],> 100 µM
same,TGI,[51],> 100 µM
same,TGI,[52],> 100 µM
same,TGI,[53],> 100 µM
same,TGI,[54],> 100 µM
same,TGI,[55],> 100 µM
same,TGI,[56],> 100 µM
same,TGI,[57],> 25.6 µM
same,TGI,[58],> 100 µM
CC(NC(=O)C(NC(=O)OCc1ccccc1)C(C)C)C(=O)NCC(=O)O (stereo not drawn) (Cbz-Val-Ala-Gly-OH; configuration not given here),TGI,[1],> 100 µM
same,TGI,[2],> 100 µM
same,TGI,[3],> 100 µM
same,TGI,[4],> 100 µM
same,TGI,[5],> 100 µM
same,TGI,[7],> 100 µM
same,TGI,[8],> 100 µM
same,TGI,[9],> 100 µM
same,TGI,[10],> 100 µM
same,TGI,[11],> 100 µM
same,TGI,[12],> 100 µM
same,TGI,[14],> 100 µM
same,TGI,[15],> 100 µM
same,TGI,[16],> 100 µM
same,TGI,[17],> 100 µM
same,TGI,[18],> 100 µM
same,TGI,[19],> 100 µM
same,TGI,[20],> 100 µM
same,TGI,[22],> 100 µM
same,TGI,[23],> 100 µM
same,TGI,[24],> 100 µM
same,TGI,[25],> 100 µM
same,TGI,[26],> 100 µM
same,TGI,[27],> 100 µM
same,TGI,[28],> 100 µM
same,TGI,[29],> 100 µM
same,TGI,[30],> 100 µM
same,TGI,[31],> 100 µM
same,TGI,[32],> 100 µM
same,TGI,[33],> 100 µM
same,TGI,[34],> 100 µM
same,TGI,[36],> 100 µM
same,TGI,[37],> 100 µM
same,TGI,[38],> 100 µM
same,TGI,[39],> 100 µM
same,TGI,[40],> 100 µM
same,TGI,[41],> 100 µM
same,TGI,[42],> 100 µM
same,TGI,[43],> 100 µM
same,TGI,[44],> 100 µM
same,TGI,[45],> 100 µM
same,TGI,[46],> 100 µM
same,TGI,[47],> 100 µM
same,TGI,[48],> 100 µM
same,TGI,[49],> 100 µM
same,TGI,[51],> 100 µM
same,TGI,[52],> 100 µM
same,TGI,[53],> 100 µM
same,TGI,[54],> 100 µM
same,TGI,[55],> 100 µM
same,TGI,[56],> 100 µM
same,TGI,[57],> 100 µM
same,TGI,[58],> 100 µM
Cc1ncc([N+](=O)[O-])n1CCNCCCCn1ccnc1[N+](=O)[O-],TGI,[1],> 100 µM
same,TGI,[59],> 100 µM
same,TGI,[2],> 100 µM
same,TGI,[3],> 100 µM
same,TGI,[4],> 100 µM
same,TGI,[5],> 100 µM
same,TGI,[6],> 100 µM
same,TGI,[7],> 100 µM
same,TGI,[8],> 100 µM
same,TGI,[9],> 100 µM
same,TGI,[11],> 100 µM
same,TGI,[12],> 100 µM
same,TGI,[13],> 100 µM
same,TGI,[14],> 100 µM
same,TGI,[15],> 100 µM
same,TGI,[16],> 100 µM
same,TGI,[17],> 100 µM
same,TGI,[18],> 100 µM
same,TGI,[19],> 100 µM
same,TGI,[20],> 100 µM
same,TGI,[21],> 100 µM
same,TGI,[22],> 100 µM
same,TGI,[23],> 100 µM
same,TGI,[24],> 100 µM
same,TGI,[25],> 100 µM
same,TGI,[26],> 100 µM
same,TGI,[27],> 100 µM
same,TGI,[28],> 100 µM
same,TGI,[29],> 100 µM
same,TGI,[30],> 100 µM
same,TGI,[31],> 100 µM
same,TGI,[32],> 100 µM
same,TGI,[33],> 100 µM
same,TGI,[34],> 100 µM
same,TGI,[35],> 100 µM
same,TGI,[36],> 100 µM
same,TGI,[37],> 100 µM
same,TGI,[38],> 100 µM
same,TGI,[39],> 100 µM
same,TGI,[40],> 100 µM
same,TGI,[41],> 100 µM
same,TGI,[42],> 100 µM
same,TGI,[43],> 100 µM
same,TGI,[44],> 100 µM
same,TGI,[45],> 100 µM
same,TGI,[46],> 100 µM
same,TGI,[47],> 100 µM
same,TGI,[48],> 100 µM
same,TGI,[50],> 100 µM
same,TGI,[51],> 100 µM
same,TGI,[52],> 100 µM
same,TGI,[53],> 100 µM
same,TGI,[54],> 100 µM
same,TGI,[55],> 100 µM
same,TGI,[56],> 100 µM
same,TGI,[57],> 100 µM
same,TGI,[58],> 100 µM
